Literature values, collected in paper PMC10675484, “Characterization and Pharmacokinetic Assessment of a New Berberine Formulation with Enhanced Absorption In Vitro and in Human Volunteers” (Pharmaceutics, 2023).
Read-outs that look alike come from different tables or passages of the source.

Assays:
[1] = not given; remark: listed apart in the source
[2] = set-up: method as in PMID 26851175; conditions: orally administered berberine
[3] = not given; remark: listed apart in the source
[4] = 500 mg berberine, within a 2 h period
[5] = 20 study participants, oral 400 mg of berberine
[6] = human volunteers, doses similar to the current study

For `COc1ccc2cc3[n+](cc2c1OC)CCc1cc2c(cc1-3)OCO2` [BCl], which “Biopharmaceutical Classification System class” value is on record?
Its value is “class III”.

What about the Solubility in water of the same compound?
The Solubility in water was “approximately 1.3 mg/mL”.

With `COc1ccc2c(c1OC)CN1CCc3cc4c(cc3C1=C2)OCO4` [DHB, dihydroberberine] as the compound, how does the “Glucose and insulin response” value ([1]; study participants, during the study period) read?
The value was “no significant changes”.

What does the source list for `COc1ccc2cc3[n+](cc2c1OC)CCc1cc2c(cc1-3)OCO2` [berberine, 2,3-methylenedioxy-9,10-dimethoxy-protoberberine]?
Fraction metabolized in the enterocytes [2]: approx. 43.5%; AUC (berberine) [1, 4]: 42.3 ± 17.6 ng·h/mL; Cmax (berberine) [1, 4]: 0.4 ± 0.17 ng/mL; Cmax ([1]; 500 mg of berberine in 10 volunteers): 0.07 nM; Mean AUC0–∞ [1, 5]: ~9.2 ng·h/mL; Mean Cmax [1, 5]: approx. 0.4 ng/mL; Fraction of orally administered dose entering the systemic circulation ([1]; human pharmacokinetic studies): ≤ 5%; AUC (total berberine) [1, 6]: 1217 ± 129 pg·h/mL; Cmax (total berberine) [1, 6]: 316.88 ± 26.60 pg/mL; Elimination half-life ([1]; oral administration in humans): 2.94 ± 0.14 h; Absolute bioavailability ([3]; oral administration in rats, ref 23, 24): < 1%; Absolute bioavailability ([3]; oral administration in rats, ref 24): 0.68%; Absorption rate in the gut ([3]; oral administration in rats, ref 25): approx. 33.6%; AUC in the liver relative to plasma ([3]; orally administered berberine 200 mg/kg): 10 fold
